From patent publication US20160199463A1, “HDAC2 DEFENDS VASCULAR ENDOTHELIUM FROM INJURY” (The Johns Hopkins University, priority 2014, published 2016)

Assays:
Arg2 = Arg2 protein expression in HAECs (Western blot); assay type: cell-based, human
Description: (§1) After 48 hrs of HAEC cells transfection, cells were lysed in ice cold RIPA lysis buffer consisting of 20 mM Tris-HCl at pH 7.5, 150 mM NaCl, 1 mM EDTA, 1 mM EGTA, 1% NP40, 1% sodium deoxycholate, 1 mM Na3VO4, 2.5 mM sodium pyrophosphate, 1 mM 3-glycerophosphate, 1 μg/mL leupeptin, and a 1:1000 diluted protease inhibitor cocktail (Sigma). For immunoprecipitation studies, whole cell lysate lysates were centrifuged at 14,000×g and supernatants were precleared by incubation with Protein A/G-agarose beads for 2 h at 4° C. with rocking. Agarose beads were then pelleted by centrifugation at 1,000×g. FLAG-Arg2 in precleared lysates were immunoprecipitated by incubation overnight at 4° C. with rocking following addition of anti-FLAG antibody (10 μl). Immune complexes were eluted in 2×SDS sample buffer by boiling for 5 minutes before loading into SDS-PAGE. Western blotting analysis was performed by transferring the SDS gel onto a PVDF membrane and visualized using secondary antibodies conjugated to alkaline phosphatases.

Arg2 mRNA [1] = test: Arg2 mRNA in isolated mice aorta (real-time PCR); assay type: cell-based, mouse; settings: TSA 200 nmol/L, 18 hours
Description: Total RNA was extracted from segments of mice aortas and HAEC using Trizol and PureLink (Invitrogen). RNA was then reverse transcribed with oligo dT primers to obtain cDNA and quantitative real time PCR (Applied Biosystems) was performed using SYBR Green Supermix mix (Applied Biosystems) whereas semiquantitative RTPCR was performed using conventional Biorad PCR machine and the following primer sets:
Real Time PCR data are expressed as “fold change”, which is calculated as 2-ΔΔCt.

eNOS = eNOS expression in HAECs (immunoblot); assay type: cell-based, human; settings: 1 μmol/L, 18 hours
Description: as §1

HDAC = settings: cited from earlier work
Arg2 mRNA [2] = test: Arg2 mRNA in HAECs (RT-PCR, real-time PCR); assay type: cell-based, human; settings: preincubated with TSA
Description: Total RNA was extracted from segments of mice aortas and HAEC using Trizol and PureLink (Invitrogen). RNA was then reverse transcribed with oligo dT primers to obtain cDNA and quantitative real time PCR (Applied Biosystems) was performed using SYBR Green Supermix mix (Applied Biosystems) whereas semiquantitative RTPCR was performed using conventional Biorad PCR machine and the following primer sets: Real Time PCR data are expressed as “fold change”, which is calculated as 2-ΔΔCt.

Arg2 ubiquitination = Arg2 ubiquitination in HAECs (immunoprecipitation); assay type: cell-based, human; settings: preincubation with TSA; MG132 10 μmol/L in all groups
Description: as §1
Posttranslational modification by ubiquitin subjects proteins to proteasomal degradation and, therefore, affects their abundance. Because both acetylation and ubiquitination target lysine residues of proteins, there is a significant cross talk between these 2 pathways (Yang et al., 2008 Mol Cell, 31:449-461). […]

For `CC(/C=C/C(=O)NO)=C\[C@@H](C)C(=O)c1ccc(N(C)C)cc1` [TSA, trichostatin A], the “Arg2 expression, broad-spectrum HDAC inhibitors” value (Arg2; 1 μmol/L, 18 hours) was “upregulated”, the “concentration of maximum effect on Arg2 protein” value (Arg2; 18 hours) was 1 µmol/L and the “Arg2 protein expression, dose dependence” value (Arg2; TSA 0, 0.1, 0.3, and 1 μmol/L, 18 hours) was “dose-dependent fashion”. For the same compound, the Arg2 expression (Arg2; TSA 400 nmol/L, 18 hours) was “increased”, the “time at which increase in Arg2 protein expression is observed” value (Arg2; TSA 1 μmol/L) was 8 h and the “Arg2 mRNA” value (Arg2 mRNA [1]) was “substantially upregulated”. The eNOS expression (eNOS) was “negligible effect”, the IC50 (HDAC) was 1.8 nM and the “Arg2 mRNA” value (Arg2 mRNA [2]) was “substantially upregulated”. For the same compound, the “ubiquitination of Arg2” value (Arg2 ubiquitination) was “no effects”.
